Measured values reported in patent publication US10548861B2 (Academia Sinica, priority 2015, dated 2020).
Where two headings read alike, the source gives them in different places.

Key:
H562 = assay: 72 hr cytotoxicity: SCLC classic; type: cell-based; settings: Homo sapiens
Z-138 = assay: Drug combination cytotoxicity with BO-1055; type: cell-based, human
H524 = assay: 72 hr cytotoxicity: SCLC variant; type: cell-based; settings: Homo sapiens, NCI-H524
TC-32 = assay: Cytotoxicity: Ewing's sarcoma; settings: Homo sapiens, TC-32, read-out: cytotoxic activity (IC50)
H187 = assay: 72 hr cytotoxicity: SCLC classic; type: cell-based; settings: Homo sapiens, NCI-H187
H209 = assay: 72 hr cytotoxicity: SCLC classic; type: cell-based; settings: Homo sapiens, NCI-H209
[1] = test system: Ewing's sarcoma cell lines; assay: Cytotoxicity on sarcoma panel; type: cell-based; settings: Homo sapiens, read-out: IC50 range
H719 = assay: 72 hr cytotoxicity: SCLC classic; type: cell-based; settings: Homo sapiens
A673 = assay: Cytotoxicity: Ewing's sarcoma; settings: Homo sapiens, A673, read-out: cytotoxic activity (IC50)
NECB1 = assay: Drug combination cytotoxicity with BO-1055; type: cell-based, human
REC-1 [2] = assay: Cytotoxicity: Mantle Cell Lymphoma; settings: Homo sapiens
[3] = test system: spontaneous murine B-cell lymphoma; assay: Cytotoxicity: lymphoma cells with no stromal support; settings: read-out: cytotoxicity IC50, Murine BCL, spontaneous CD19+
BMMSC = assay: 72 hr cytotoxicity: BM Mesenchyme; type: cell-based; settings: Homo sapiens, 72 h
[4] = test system: normal cord blood CD34+ cells; assay: Cytotoxicity on normal cord blood CD34+ cells; type: cell-based; settings: Homo sapiens, 72 h
H889 = assay: 72 hr cytotoxicity: SCLC classic; type: cell-based; settings: Homo sapiens, NCI-H889
FTE-hTERT = assay: 72 hr cytotoxicity: Fallopian epithelium; type: cell-based; settings: Homo sapiens, 72 h
Mino [5] = assay: Drug combination cytotoxicity with BO-1055; type: cell-based, human
H841 = assay: 72 hr cytotoxicity: SCLC variant; type: cell-based; settings: Homo sapiens, NCI-H841
H60 = assay: 72 hr cytotoxicity: SCLC classic; type: cell-based; settings: Homo sapiens
H526 = assay: 72 hr cytotoxicity: SCLC variant; type: cell-based; settings: Homo sapiens, NCI-H526
H128 = assay: 72 hr cytotoxicity: SCLC classic; type: cell-based; settings: Homo sapiens, NCI-H128
Granta = assay: Drug combination cytotoxicity with BO-1055; type: cell-based, human
HBL2 [6] = assay: Drug combination cytotoxicity with BO-1055; type: cell-based; settings: Homo sapiens, HBL2, 72 h, read-out: IC50 single drug
[7] = test system: Rhabdomyosarcoma cell lines; assay: Cytotoxicity on sarcoma panel; type: cell-based; settings: Homo sapiens, read-out: IC50 range
H249 = assay: 72 hr cytotoxicity: SCLC classic; type: cell-based; settings: Homo sapiens
H678 = assay: 72 hr cytotoxicity: SCLC classic; type: cell-based; settings: Homo sapiens
H211 = assay: 72 hr cytotoxicity: SCLC variant; type: cell-based; settings: Homo sapiens, NCI-H211
Osteosarcoma cell lines = assay: Cytotoxicity on sarcoma panel; type: cell-based; settings: Homo sapiens, osteosarcoma lines highly resistant to BO-1055 (BO-1055 3 of 5; doxorubicin two lines); read-out: IC50 range
BCI-NSI hTERT = assay: 72 hr cytotoxicity: Bronchial epithelium; type: cell-based; settings: Homo sapiens, 72 h
HBL2 [8] = assay: Cytotoxicity: Mantle Cell Lymphoma; settings: Homo sapiens
H69 = assay: 72 hr cytotoxicity: SCLC classic; type: cell-based; settings: Homo sapiens, NCI-H69
REC-1 [9] = assay: Drug combination cytotoxicity with BO-1055; type: cell-based, human
U2OS = assay: Cytotoxicity: Osteosarcoma; settings: Homo sapiens, read-out: cytotoxic activity (IC50)
JEKO-1 = assay: Drug combination cytotoxicity with BO-1055; type: cell-based; settings: Homo sapiens, JeKo-1, 72 h, read-out: IC50 single drug
Saos-1 = assay: Cytotoxicity: Osteosarcoma; settings: Homo sapiens, read-out: cytotoxic activity (IC50)
H417 = assay: 72 hr cytotoxicity: SCLC variant; type: cell-based; settings: Homo sapiens, NCI-H417
Ly10 = settings: TK, AEW, SOR, TOPO, publically accessible data (Broad, Sanger), read-out: cytotoxicity IC50; cited from earlier work
Granta-519 = settings: TK, AEW, SOR, TOPO, publically accessible data (Broad, Sanger), read-out: cytotoxicity IC50; cited from earlier work
Mino [10] = settings: TK, AEW, SOR, TOPO, publically accessible data (Broad, Sanger), read-out: cytotoxicity IC50; cited from earlier work
[11] = Homo sapiens, 72 h, read-out: IC50 single drug

## COc1cccc2c1C(=O)c1c(O)c3c(c(O)c1C2=O)C[C@@](O)(C(=O)CO)C[C@@H]3O[C@H]1C[C@H](N)[C@H](O)[C@H](C)O1 [Doxorubicin]
H562
  IC50: 170 nM
Z-138
  interaction with BO-1055 (combo-1, combo-2): both combinations were synergistic
Z-138; Homo sapiens, Z-138, 72 h, read-out: IC50 single drug
  IC50: 438 nM
H524
  IC50: 20 nM
TC-32
  IC50: 5 nM
H187
  IC50: 30 nM
H209
  IC50: 30 nM
[1]
  IC50: 5 to 380 nM
H719
  IC50: 90 nM
A673
  IC50: 380 nM
NECB1
  interaction with BO-1055 (combo-1, combo-2): synergistic with combo-1 and antagonistic against combo-2
NECB1; [11]
  IC50: 1230 nM
REC-1 [2]; Rec1
  IC50: 51 nM
REC-1 [2]; Rec1, read-out: cytotoxicity IC50
  IC50: 50 nM
[3]
  IC50: 124 nM
BMMSC
  IC50: 450 nM
[4]
  IC50: 200 nM
H889
  IC50: 20 nM
FTE-hTERT
  IC50: 6250 nM
Mino [5]
  interaction with BO-1055 (combo-1, combo-2): both combinations were synergistic
Mino [5]; Homo sapiens, MINO, 72 h, read-out: IC50 single drug
  IC50: 135 nM
H841
  IC50: 20 nM
H60
  IC50: 130 nM
H526
  IC50: 10 nM
H128
  IC50: 100 nM
Granta
  interaction with BO-1055 (combo-1, combo-2): synergistic with combo-1 and antagonistic against combo-2
Granta; [11]
  IC50: 257 nM
HBL2 [6]
  IC50: 51 nM
[7]
  IC50: 11 nM
H249
  IC50: 130 nM
H678
  IC50: 10 nM
H211
  IC50: 150 nM
Osteosarcoma cell lines
  IC50: 25 to 90 nM
BCI-NSI hTERT
  IC50: 500 nM
HBL2 [8]; HBL2
  IC50: 28 nM
HBL2 [8]; HBL2, read-out: cytotoxicity IC50
  IC50: 30 nM
H69
  IC50: 60 nM
REC-1 [9]
  interaction with BO-1055 (combo-1, combo-2): both combinations were antagonistic
REC-1 [9]; Homo sapiens, Rec1, 72 h, read-out: IC50 single drug
  IC50: > 10000 nM
U2OS
  IC50: 90 nM
JEKO-1
  IC50: 98 nM
Saos-1
  IC50: 25 nM
H417
  IC50: 10 nM

## CNC(=O)c1cc(Oc2ccc(NC(=O)Nc3ccc(Cl)c(C(F)(F)F)c3)cc2)ccn1 [SOR]
Ly10
  IC50: 28000 nM
Granta-519
  IC50: 28000 nM
Mino [10]
  IC50: 28000 nM
